Data from ChEMBL document CHEMBL1201862, “PubChem BioAssay data set” (2004).
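Tested at 5 concentrations; 48 h exposure; 96-well plates; endpoints linearly interpolated, else capped at highest concentration. Abbreviation: GI50, concentration required for 50% inhibition of growth.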 Activity calls are given as the source filed them. Cut-off read from the data, not from the text of the source: active = GI50 up to about 1.1 µM and inactive = higher.

Experiments:
Assay in all cases: NCI tumour cell line growth inhibition, 48 h
[1] = tested on: HOP-92
[2] = tested on: COLO 205
[3] = tested on: SK-MEL-28
[4] = tested on: IGROV-1
[5] = tested on: M14
[6] = tested on: CCRF-CEM
[7] = tested on: M19-MEL
[8] = tested on: NCI-H522
[9] = tested on: 786-0
[10] = tested on: SF-268
[11] = tested on: HOP-62
[12] = tested on: RPMI-8226
[13] = tested on: HOP-18
[14] = tested on: SF-295
[15] = tested on: LXFL 529
[16] = tested on: NCI-H226
[17] = tested on: A549
[18] = tested on: SW-620
[19] = tested on: SNB-75
[20] = tested on: OVCAR-3
[21] = tested on: HCT-116
[22] = tested on: SN12C
[23] = tested on: CAKI-1
[24] = tested on: SK-MEL-5
[25] = tested on: RXF 393
[26] = tested on: KM12
[27] = tested on: SF-539
[28] = tested on: DMS-273
[29] = tested on: HCT-15
[30] = tested on: HCC 2998
[31] = tested on: Malme-3M
[32] = tested on: MOLT-4
[33] = tested on: DLD-1
[34] = tested on: ACHN
[35] = tested on: UACC-257
[36] = tested on: EKVX
[37] = tested on: SK-OV-3
[38] = tested on: TK-10
[39] = tested on: NCI-H460
[40] = tested on: A498
[41] = tested on: HL-60
[42] = tested on: OVCAR-5
[43] = tested on: UO-31
[44] = tested on: KM-20L2
[45] = tested on: LOX IMVI
[46] = tested on: HT-29
[47] = tested on: SNB-78
[48] = tested on: U-251
[49] = tested on: NCI-H23
[50] = tested on: UACC-62
[51] = tested on: SNB-19
[52] = tested on: SK-MEL-2
[53] = tested on: OVCAR-4
[54] = tested on: OVCAR-8
[55] = tested on: K562
[56] = tested on: DMS-114
[57] = tested on: SR
[58] = tested on: MDA-MB-435
[59] = tested on: MCF7
[60] = tested on: MDA-MB-231
[61] = tested on: T47D
[62] = tested on: PC-3
[63] = tested on: Hs-578T
[64] = tested on: NCI/ADR-RES
[65] = tested on: BT-549
[66] = tested on: MDA-N
[67] = tested on: DU-145

Measured: GI50

C[n+]1ccc2[nH]c3ccccc3c2c1
> 100 µM: [29]
inactive: [1] > 100 µM | [2] > 100 µM | [3] > 100 µM | [4] > 100 µM | [5] > 100 µM | [6] > 100 µM | [7] > 100 µM | [8] > 100 µM | [9] > 100 µM | [10] > 100 µM | [11] > 52.8 µM | [12] > 100 µM | [13] > 45 µM | [14] > 100 µM | [15] > 100 µM | [16] 61 µM | [17] > 100 µM | [18] > 86.3 µM | [19] > 100 µM | [20] > 100 µM | [21] 48.6 µM | [22] > 100 µM | [23] > 100 µM | [24] > 78.3 µM | [25] > 100 µM | [26] 77.1 µM | [27] > 100 µM | [28] > 100 µM | [30] > 100 µM | [31] 35.6 µM | [32] 38.8 µM | [33] > 100 µM | [34] > 100 µM | [35] > 100 µM | [36] > 100 µM | [37] > 100 µM | [38] > 100 µM | [39] > 77.4 µM | [40] 90.2 µM | [41] > 100 µM | [42] > 58.3 µM | [43] > 100 µM | [44] > 100 µM | [45] > 100 µM | [46] > 100 µM | [47] > 100 µM | [48] > 100 µM | [49] > 100 µM | [50] > 100 µM | [51] > 100 µM | [52] > 100 µM | [53] > 100 µM | [54] > 100 µM | [55] > 100 µM

COc1cc(C)c2c(c1)CN1CN2Cc2cc(OC)cc(C)c21
inactive: [1] 35.3 µM | [2] 57 µM | [4] 97.1 µM | [5] > 100 µM | [6] 65.6 µM | [7] 38.9 µM | [8] > 100 µM | [9] 74.1 µM | [10] 48.1 µM | [11] 65.6 µM | [12] 43.8 µM | [14] 52.4 µM | [15] 60 µM | [16] 49.5 µM | [17] 96.4 µM | [18] > 100 µM | [19] 11.2 µM | [56] 21.5 µM | [20] 25.5 µM | [21] 47.9 µM | [22] 46.3 µM | [23] > 100 µM | [24] 3.66 µM | [26] 58.2 µM | [27] > 100 µM | [28] 38.2 µM | [31] 67.9 µM | [32] 45 µM | [33] 31.4 µM | [34] 37.8 µM | [36] 32.7 µM | [37] > 100 µM | [39] 64.6 µM | [41] 21.4 µM | [42] 27.9 µM | [57] 36.1 µM | [43] 33.1 µM | [45] 66.2 µM | [46] 74.8 µM | [47] 56.8 µM | [48] 50.6 µM | [49] 45.8 µM | [50] 29.9 µM | [52] 45.6 µM | [53] 32.8 µM | [54] 85.7 µM | [55] 46.9 µM
34.8 µM: [29]
active: [51] < 0.01 µM

O=C(NC(Nc1ccc(F)cc1)(C(F)(F)F)C(F)(F)F)C(C(F)(F)F)C(F)(F)F
inactive: [1] 51.3 µM | [2] 6.65 µM | [3] 17.5 µM | [4] 7.62 µM | [6] 3.13 µM | [58] 1.13 µM | [8] 13.2 µM | [9] > 54.1 µM | [10] 49.8 µM | [11] 99.1 µM | [12] 8.11 µM | [14] 3.01 µM | [59] 16.7 µM | [16] 50.5 µM | [17] 5.53 µM | [18] 1.65 µM | [19] 36.5 µM | [20] 44.3 µM | [21] 4.2 µM | [22] 50.2 µM | [23] > 54.7 µM | [24] 1.43 µM | [25] 33.3 µM | [60] 52 µM | [27] 21.4 µM | [61] 3.15 µM | [30] 12 µM | [31] 48 µM | [32] 4.86 µM | [34] 1.71 µM | [62] 4.91 µM | [35] 3.3 µM | [36] 24.7 µM | [37] 72.1 µM | [63] 20.4 µM | [38] > 24.9 µM | [39] 7.98 µM | [40] 62.2 µM | [42] > 96.6 µM | [57] 18.6 µM | [43] 2.39 µM | [64] 4.46 µM | [65] 18.7 µM | [46] 15.5 µM | [48] 57.4 µM | [49] 18.1 µM | [66] 9.84 µM | [51] 48.2 µM | [52] 3.63 µM | [53] 5.52 µM | [54] 3.18 µM | [67] 9.93 µM
active: [5] 0.402 µM | [26] 0.908 µM | [41] 1.04 µM | [45] 0.617 µM | [50] 0.199 µM | [55] 0.401 µM
2.13 µM: [29]
